Values quoted from earlier work, collected in patent US7141607B1, “Methods and compositions for treating and inhibiting retinal neovascularization” (Insite Vision Incorporated, priority 2000, dated 2006).

Tested on: retinal neovascularization
Details: IP injection on days 12, 14 and 16; same animal model

For CNC(=O)[C@H](Cc1ccccc1)NC(=O)[C@H](CC(C)C)[C@H](CSc1cccs1)C(=O)NO (relative stereo) [batimastat, [2-R-[1(S*),2R*,3S*]]-N^4-hydroxy-N^1-[2-(methylamino)-2-oxo-1-(phenylmethyl)ethyl]-2-(2-methylpropyl)-3-[(2-thienylthio)methyl]butanediamide], the reduction in neovascularization is listed as 72%.
